Test results published in patent US4327097A, “Novel penicillins” (Toyama Chemical Co., Ltd., priority 1974, dated 1982).

Legend:
Klebsiella pneumoniae [1] = test: MIC against clinical isolates; assay type: cell-based; conditions: unit assumed
Proteus mirabilis = test: MIC against clinical isolates; assay type: cell-based; conditions: unit assumed
Staphylococcus aureus = test: MIC against clinical isolates; assay type: cell-based; conditions: unit assumed
[2] = tested on: β-lactamase, Pseudomonas aeruginosa GN 238; test: Resistant activity against β-lactamase, iodometric assay; assay type: biochemical; conditions: β-lactamase from Pseudomonas aeruginosa GN 238; Potassium Penicillin G = 100
Protocol: (3) Resistant activity against β-lactamase, Pseudomonas aerugionsa GN 238:
The resistant activity of each compound against β-lactamase was measured in the manner described below.
β-Lactamase was prepared from Pseudomonas aeruginosa GN 238. This microorganism was cultured in 100 ml of a medium containing 2 g of yeast extract, 10 g of polypeptone, 2 g of glucose, 7 g of disodium hydrogen phosphate, 2 g of potassium dihydrogen phosphate, 1.2 g of ammonium sulfate and 0.4 g of magnesium sulfate, per liter, in a 500-ml Erlenmeyer flask for 6 hrs. at 37° C. with shaking. The resulting cells were collected by centrifugation (5,000 r.p.m.×10 min.), washed three times with 0.1 M phosphate buffer (pH 7.0). Subsequently, the cells were subjected to sonication (20 KHz, 20 min.) and then centrifuged at 15,000 r.p.m. for 60 min. By using the supernatant of enzyme fluid, the resistance of each compound against β-lactamase was determined by the iodometric assay method. Each numeral shown in Table 7 is a relative activity value calculated by assuming as 100 the activity of the control Potassium Penicillin G.

Pseudomonas aeruginosa = test: MIC against clinical isolates; assay type: cell-based; conditions: unit assumed; for MIC Pseudomonas aeruginosa GN: strain number not given; for MIC Pseudomonas aeruginosa S-1: Table 6-4, clinical isolate
Escherichia coli = test: MIC against clinical isolates; assay type: cell-based; conditions: unit assumed
Shigella sonnei = test: MIC against clinical isolates; assay type: cell-based; conditions: Table 5-5, clinical isolate; unit assumed
Protocol: (§1) The minimum inhibitory concentration (MIC) was determined by the plate method disclosed in "Chemotherapy" (Japan), Vol. 16, (1968), pages 98-99. The culture medium used was a Heart infusion agar (pH 7.4). The number of the cells per plate used in the inoculum was 10^4 (10^6 cells/ml).
(§2) MIC was determined in the same manner as in the preceding paragraph (1).

Shigella flexneri = test: MIC against clinical isolates; assay type: cell-based; conditions: Table 5-5, clinical isolate; unit assumed
Protocol: as §1, §2

[3] = tested on: Pseudomonas aeruginosa I.F.O.; test: MIC, plate method, standard strains; assay type: cell-based; conditions: unit assumed; for MIC Pseudomonas aeruginosa I.F.O.: Table 4, standard strain
Summary of the method: (§3)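 Minimum inhibitory concentrations are determined by agar plate dilution using Heart infusion agar (pH 7.4). Each plate receives an inoculum of 10^4 cells.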

Escherichia coli NIHJ = test: MIC, plate method, standard strains; assay type: cell-based; conditions: unit assumed; for MIC Escherichia coli NIHJ: Table 4, standard strain
Summary of the method: as §3

Proteus vulgaris 3027 = test: MIC, plate method, standard strains; assay type: cell-based; conditions: unit assumed
Summary of the method: as §3

[4] = tested on: Staphylococcus aureus 209p; test: MIC, plate method, standard strains; assay type: cell-based; conditions: unit assumed
Summary of the method: as §3

Klebsiella pneumoniae [5] = test: MIC, plate method, standard strains; assay type: cell-based; conditions: unit assumed
Summary of the method: as §3

Proteus morganii = test: MIC against clinical isolates; assay type: cell-based; conditions: unit assumed
Salmonella typhi-murium = test: MIC against clinical isolates; assay type: cell-based; conditions: Table 5-5, clinical isolate; unit assumed
Proteus vulgaris = test: MIC against clinical isolates; assay type: cell-based; conditions: unit assumed
Proteus rettgeri = test: MIC against clinical isolates; assay type: cell-based; conditions: Table 6-5, clinical isolate; unit assumed

CCCCCCCCN1CCN(C(=O)NC(C(=O)NC2C(=O)N3C2SC(C)(C)C3C(=O)O)c2ccccc2)C(=O)C1=O (single isomer, unassigned) [Compound No. 47]
1%: Relative activity (%), resistant activity against β-lactamase [2]
1.57 µg/mL: MIC Klebsiella pneumoniae GN 917 (Klebsiella pneumoniae [1]; Table 5-4, clinical isolate) | MIC Staphylococcus aureus F-2 (Staphylococcus aureus; Table 5-1, clinical isolate) | MIC Staphylococcus aureus F-3 (Staphylococcus aureus; Table 5-1, clinical isolate) | MIC Escherichia coli GN 3452 (Escherichia coli; Table 5-2, clinical isolate) | MIC Escherichia coli GN 3481 (Escherichia coli; Table 5-2, clinical isolate) | MIC Escherichia coli K-1 (Escherichia coli; Table 5-2, clinical isolate) | MIC Escherichia coli K-2 (Escherichia coli; Table 5-2, clinical isolate) | MIC Shigella flexneri JS 11839 (Shigella flexneri)
> 200 µg/mL: MIC Staphylococcus aureus F-5 (Staphylococcus aureus; Table 5-1, clinical isolate) | MIC Escherichia coli GN 3611 (Escherichia coli; Table 5-2, clinical isolate)
6.25 µg/mL: MIC Staphylococcus aureus F-1 (Staphylococcus aureus; Table 5-1, clinical isolate) | MIC Staphylococcus aureus MS 8713 (Staphylococcus aureus; Table 5-1, clinical isolate) | MIC Escherichia coli GN 3465 (Escherichia coli; Table 5-2, clinical isolate) | MIC Shigella sonnei JS 11232 (Shigella sonnei) | MIC Shigella flexneri JS 11215 (Shigella flexneri) | MIC Pseudomonas aeruginosa I.F.C ([3]; Table 3, standard strain)
< 1.57 µg/mL: MIC Esche--richin coil NIHJ (Escherichia coli NIHJ; Table 3, standard strain) | MIC Proteus vulgaris 3027 (Proteus vulgaris 3027; Table 3, standard strain) | MIC Staphylococcus aureus 209p ([4]; Table 3, standard strain, Heart infusion agar pH 7.4) | MIC Klebsiella pneumoniae (Klebsiella pneumoniae [5]; Table 3, standard strain)
< 0.4 µg/mL: MIC Proteus mirabilis (Proteus mirabilis; Table 5-6, clinical isolate) | MIC Staphylococcus aureus MS 8619 (Staphylococcus aureus; Table 5-1, clinical isolate) | MIC Proteus morganii (Proteus morganii; Table 5-6, clinical isolate) | MIC Salmonella typhi-murium SL 858 (Salmonella typhi-murium) | MIC Proteus vulgaris (Proteus vulgaris; Table 5-6, clinical isolate)
50 µg/mL: MIC Pseudomonas aeruginosa GN 376 (Pseudomonas aeruginosa; Table 5-3, clinical isolate) | MIC Pseudomonas aeruginosa GN 383 (Pseudomonas aeruginosa; Table 5-3, clinical isolate) | MIC Pseudomonas neruginosa S-1 (Pseudomonas aeruginosa; Table 5-4, clinical isolate) | MIC Pseudomonas neruginosa S-2 (Pseudomonas aeruginosa; Table 5-4, clinical isolate) | MIC Pseudomonas neruginosa S-3 (Pseudomonas aeruginosa; Table 5-4, clinical isolate) | MIC Pseudomonas neruginosa S-4 (Pseudomonas aeruginosa; Table 5-4, clinical isolate) | MIC Salmonella typhi-murium SL 2136 (Salmonella typhi-murium)
3.13 µg/mL: MIC Klebsiella pneumoniae GN 3850 (Klebsiella pneumoniae [1]; Table 5-4, clinical isolate) | MIC Staphylococcus aureus MS 8588 (Staphylococcus aureus; Table 5-1, clinical isolate) | MIC Staphylococcus aureus MS 8596 (Staphylococcus aureus; Table 5-1, clinical isolate) | MIC Staphylococcus aureus MS 8684 (Staphylococcus aureus; Table 5-1, clinical isolate)
100 µg/mL: MIC Escherichia coli K-3 (Escherichia coli; Table 5-2, clinical isolate)
0.79 µg/mL: MIC Shigella sonnei JS 11755 (Shigella sonnei)

CCN1CCN(C(=O)NC(C(=O)NC2C(=O)N3C(C(=O)O)=C(CSc4nnnn4CC)CSC23)c2ccccc2)C(=O)C1=O (single isomer, unassigned) [Compound No. 77]
0.78 µg/mL: MIC Proteus vulgaris (Proteus vulgaris; Table 6-5, clinical isolate)
50 µg/mL: MIC Pseudomonas aeruginosa GN 1035 (Pseudomonas aeruginosa; Table 6-3, clinical isolate) | MIC Pseudomonas aeruginosa GN 2565 (Pseudomonas aeruginosa; Table 6-3, clinical isolate) | MIC Pseudomonas aeruginosa S-1 (Pseudomonas aeruginosa)
25 µg/mL: MIC Pseudomonas aeruginosa GN (Pseudomonas aeruginosa; Table 6-3, clinical isolate) | MIC Pseudomonas aeruginosa GN4 (Pseudomonas aeruginosa; Table 6-3, clinical isolate) | MIC Pseudomonas aeruginosa GN 82 (Pseudomonas aeruginosa; Table 6-3, clinical isolate) | MIC Pseudomonas aeruginosa GN 376 (Pseudomonas aeruginosa; Table 6-3, clinical isolate) | MIC Pseudomonas aeruginosa GN 1091 (Pseudomonas aeruginosa; Table 6-3, clinical isolate) | MIC Pseudomonas aeruginosa I.F.O. [3]
3.13 µg/mL: MIC Klebsiella pneumoniae GN 4081 (Klebsiella pneumoniae [1]; Table 6-4, clinical isolate) | MIC Escherichia coli K-2 (Escherichia coli; Table 6-2, clinical isolate)
< 0.1 µg/mL: MIC Escherichia coli NIHJ (Escherichia coli NIHJ)
6.25 µg/mL: MIC Escherichia coli GN 3465 (Escherichia coli; Table 6-2, clinical isolate)
1.56 µg/mL: MIC Klebsiella pneumoniae GN 917 (Klebsiella pneumoniae [1]; Table 6-4, clinical isolate) | MIC Proteus rettgeri (Proteus rettgeri) | MIC Proteus mirabilis (Proteus mirabilis; Table 6-5, clinical isolate) | MIC Staphylococcus aureus F-1 (Staphylococcus aureus; Table 6-1, clinical isolate) | MIC Staphylococcus aureus MS 8588 (Staphylococcus aureus; Table 6-1, clinical isolate) | MIC Staphylococcus aureus MS 8596 (Staphylococcus aureus; Table 6-1, clinical isolate) | MIC Staphylococcus aureus MS 8619 (Staphylococcus aureus; Table 6-1, clinical isolate) | MIC Staphylococcus aureus MS 8684 (Staphylococcus aureus; Table 6-1, clinical isolate) | MIC Escherichia coli GN 3435 (Escherichia coli; Table 6-2, clinical isolate) | MIC Escherichia coli GN 3452 (Escherichia coli; Table 6-2, clinical isolate) | MIC Escherichia coli K-4 (Escherichia coli; Table 6-2, clinical isolate) | MIC Proteus morganii (Proteus morganii; Table 6-5, clinical isolate)
12.5 µg/mL: MIC Pseudomonas aeruginosa GN 221 (Pseudomonas aeruginosa; Table 6-3, clinical isolate)
1.57 µg/mL: MIC Proteus vulgaris 3027 (Proteus vulgaris 3027; Table 4, standard strain) | MIC Staphylococcus aureus 209p ([4]; Table 4, standard strain)
0.4 µg/mL: MIC Klebsiella pneumoniae (Klebsiella pneumoniae [5]; Table 4, standard strain)

CCN1CCN(C(=O)NC(C(=O)NC2C(=O)N3C(C(=O)O)=C(CSc4nnnn4CC)CSC23)c2ccc(O)cc2)C(=O)C1=O (single isomer, unassigned) [Compound No. 78]
0.78 µg/mL: MIC Escherichia coli K-2 (Escherichia coli; Table 6-2, clinical isolate)
12.5 µg/mL: MIC Pseudomonas aeruginosa GN (Pseudomonas aeruginosa; Table 6-3, clinical isolate) | MIC Pseudomonas aeruginosa GN 82 (Pseudomonas aeruginosa; Table 6-3, clinical isolate) | MIC Pseudomonas aeruginosa GN 376 (Pseudomonas aeruginosa; Table 6-3, clinical isolate) | MIC Pseudomonas aeruginosa GN 2565 (Pseudomonas aeruginosa; Table 6-3, clinical isolate) | MIC Pseudomonas aeruginosa I.F.O. [3]
0.39 µg/mL: MIC Klebsiella pneumoniae GN 917 (Klebsiella pneumoniae [1]; Table 6-4, clinical isolate) | MIC Escherichia coli GN 3435 (Escherichia coli; Table 6-2, clinical isolate) | MIC Escherichia coli GN 3452 (Escherichia coli; Table 6-2, clinical isolate) | MIC Escherichia coli K-4 (Escherichia coli; Table 6-2, clinical isolate) | MIC Proteus vulgaris (Proteus vulgaris; Table 6-5, clinical isolate)
0.79 µg/mL: MIC Proteus vulgaris 3027 (Proteus vulgaris 3027; Table 4, standard strain)
6.25 µg/mL: MIC Pseudomonas aeruginosa GN 221 (Pseudomonas aeruginosa; Table 6-3, clinical isolate)
3.13 µg/mL: MIC Klebsiella pneumoniae GN 4081 (Klebsiella pneumoniae [1]; Table 6-4, clinical isolate) | MIC Staphylococcus aureus F-1 (Staphylococcus aureus; Table 6-1, clinical isolate) | MIC Staphylococcus aureus MS 8588 (Staphylococcus aureus; Table 6-1, clinical isolate) | MIC Staphylococcus aureus MS 8596 (Staphylococcus aureus; Table 6-1, clinical isolate) | MIC Staphylococcus aureus 209p ([4]; Table 4, standard strain)
25 µg/mL: MIC Pseudomonas aeruginosa GN4 (Pseudomonas aeruginosa; Table 6-3, clinical isolate) | MIC Pseudomonas aeruginosa GN 1035 (Pseudomonas aeruginosa; Table 6-3, clinical isolate) | MIC Pseudomonas aeruginosa GN 1091 (Pseudomonas aeruginosa; Table 6-3, clinical isolate) | MIC Pseudomonas aeruginosa S-1 (Pseudomonas aeruginosa)
1.56 µg/mL: MIC Proteus rettgeri (Proteus rettgeri) | MIC Proteus mirabilis (Proteus mirabilis; Table 6-5, clinical isolate) | MIC Staphylococcus aureus MS 8619 (Staphylococcus aureus; Table 6-1, clinical isolate) | MIC Staphylococcus aureus MS 8684 (Staphylococcus aureus; Table 6-1, clinical isolate) | MIC Escherichia coli GN 3465 (Escherichia coli; Table 6-2, clinical isolate) | MIC Proteus morganii (Proteus morganii; Table 6-5, clinical isolate)
0.2 µg/mL: MIC Klebsiella pneumoniae (Klebsiella pneumoniae [5]; Table 4, standard strain)
< 0.1 µg/mL: MIC Escherichia coli NIHJ (Escherichia coli NIHJ)
